Results: patent publication EP3789378A1, “PIPERIDINES OR PIPERIDONES SUBSTITUTED WITH UREA AND HETEROARYL” (Grünenthal GmbH, priority 2019, dated 2021)

The compounds below were run against T1, h FPR2 (Homo sapiens, UniProt P25090) (assay: Agonistic activity in hFPR2-Aq-CHO cells (FLIPR Calcium 5 fluorescence assay)). Details: 11 point half log dilution, final assay concentration from 10µM.
T1 construct: expressed in transfected cells
T1 sequence (P25090 1-351): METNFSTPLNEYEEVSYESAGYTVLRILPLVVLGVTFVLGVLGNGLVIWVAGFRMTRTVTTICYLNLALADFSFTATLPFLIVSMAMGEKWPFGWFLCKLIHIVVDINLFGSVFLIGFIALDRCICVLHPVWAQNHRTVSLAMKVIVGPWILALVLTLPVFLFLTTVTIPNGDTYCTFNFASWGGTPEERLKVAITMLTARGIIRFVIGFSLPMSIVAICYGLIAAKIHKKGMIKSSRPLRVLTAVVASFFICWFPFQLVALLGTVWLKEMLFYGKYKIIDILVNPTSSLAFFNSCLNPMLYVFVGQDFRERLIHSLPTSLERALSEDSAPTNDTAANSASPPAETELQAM
Assay type: cell-based
Experimental: After washing, the cells are plated at 10,000 cells per well in 40 µL complete medium in a 384-well sterile clear bottom black plate and incubated in a 5% CO2 incubator at 37°C for 18 hours. Plating media is removed from each well by decanting and gentle tapping before 30 µL of 0.5X Calcium 5 dye solution (0.5X FLIPR Calcium 5 dye (Molecular devices, R8186)); HBSS; 20mM HEPES; 2.5mM Probenecid; 0.025% Pluronic F-127; pH adjusted to 7.4) is added to each well and the plate is then incubated at 37°C for 30 minutes. For the assay the plate is equilibrated at room temperature for 10 minutes before placing it in the FLIPR. Compounds are dissolved in DMSO and serially diluted over an 11 point half log (3.16 fold) dilution (2 mM to 20 nM). Compounds are then diluted 1:50 in assay buffer (HBSS; 20mM HEPES; 2.5mM Probenecid; 0.05% gelatin; 0.1% BSA; pH adjusted to 7.4) just before performing the assay. Compounds are finally added to the respective wells of the cell plate (final assay concentration 10 µM to 100 pM) using the FLIPR (e.g. FLIPR-Tetra, Molecular Devices) and fluorescence readings are captured for 5 minutes. The increase in fluorescence from the basal reading in the presence of the compounds is compared with that of the control wells (wells having no compound) to calculate the activity of the compounds. The EC50 values of the compounds can be determined using e.g. Graph pad Prism software.
Assay method for measuring agonistic activity of compounds in hFPR2-Aq-CHO cell
Cryo-vial containing 6x10^6 cells (hFPR1-Gα15-CHO or hFPR2-Aq-CHO) was thawed in a 37°C water bath. Cells were suspended in 10ml of respective complete growth media (F12(1X)HAM media (Gibco; Cat#11765); 10% HI-FBS (Gibco; Cat#10082); 0.4 mg/ml Geneticin (Gibco; Cat#10131); 0.25 mg/ml Zeocin (Invitrogen; Cat#R25001)) in a 15ml centrifuge tube. The cell viability was checked with the help of Trypan Blue dye. Upon washing the cells, those were plated in a 384-well sterile clear bottom black plate (Greiner Bioone Cat# 781091) so that, each well contained 10,000 cells in 40µl complete growth media. The plate was incubated in a 5% CO2 incubator at 37°C for 18 hours. Before assay on the next day, the cell plating media was removed from each well of the plate by decanting and gentle tapping. 30µl of 0.5X Calcium 5 dye solution (0.5X FLIPR Calcium 5 dye (Molecular devices Cat# R8186); HBSS (Invitrogen; Cat#14025); 20mM HEPES (Sigma; Cat#H0887); 2.5mM Probenecid (Sigma; Cat#P8761); 0.025% Pluronic F-127 (Sigma; Cat#P2443); pH adjusted to 7.4) was added to each well. The plate was then incubated at 37°C for 30 minutes. Following which the plate was equilibrated at room temperature for 10 minutes before placing it in a 384 well FLIPR for assay. Compounds were dissolved in DMSO and serially diluted following 11 point half log (3.16 fold) dilution with a starting concentration of 2mM (Final assay concentration 10µM). Aliquots of above mentioned each dilution was mixed with assay buffer (HBSS (Invitrogen; Cat#14025); 20mM HEPES (Sigma; Cat#H0887); 2.5mM Probenecid (Sigma; Cat#P8761); 0.05% gelatin (Sigma; Cat#G1890); 0.1% BSA (Sigma; Cat#A3059); pH adjusted to 7.4) just before performing the assay. Compounds were added to the respective wells of the assay ready cell plate with the help of the FLIPR (FLIPR Tetra) and fluorescence readings were captured for 5 minutes to measure any agonistic response of the compounds. The increase in fluorescence readings from the basal reading in presence of the compounds were compared with that of the control wells (wells having no compound) to calculate the agonistic activity of the compounds. The EC50 values of the compounds were determined using the Graph pad Prism software.

| EC50 [nM] | Structure (SMILES) |
| --- | --- |
| 7 | COc1ccc([C@@H]2CN(c3ccnc(C)n3)CC[C@H]2NC(=O)Nc2cc(C)ns2)nc1 (relative stereo) [Ex-211, trans-1-[5-methoxy-1'-(2-methyl-pyrimidin-4-yl)-1',2',3',4',5',6'-hexahydro-[2,3']bipyridinyl-4'-yl]-3-(3-methyl-isothiazol-5-yl)-urea] |
| 0.7 | COc1cnc([C@@H]2CN(CCS(C)(=O)=O)CC[C@H]2NC(=O)Nc2ccc(Cl)cc2)c(F)c1 (relative stereo) [Ex-196, trans-1-(4-chloro-phenyl)-3-[3-fluoro-1'-(2-methanesulfonyl-ethyl)-5-methoxy-1',2',3',4',5',6'-hexahydro-[2,3']bipyridinyl-4'-yl]-urea] |
| 0.9 | CS(=O)(=O)n1ccc(CN2CC[C@@H](NC(=O)Nc3ccccc3)[C@H](c3ccc(Cl)s3)C2)n1 (single isomer, unassigned) [Ex-56, trans-1-(-3-(5-chlorothiophen-2-yl)-1-((1-(methylsulfonyl)-1H-pyrazol-3-yl)methyl)piperidin-4-yl)-3-phenylurea] |
| 88 | COc1ccc([C@@H]2CN(CCS(C)(=O)=O)CC[C@H]2NC(=O)Nc2ccccc2)nc1 (relative stereo) [Ex-160, trans-1-[3-(5-Methoxy-pyridin-2-yl)-1-(2-methylsulfonyl-ethyl)-piperidin-4-yl]-3-phenyl-urea] |
| 3 | COc1ncc(CN2CC[C@@H](NC(=O)Nc3ccc(Cl)cc3)[C@H](c3ccc(Cl)s3)C2)cn1 (relative stereo) [Ex-75, trans-1-(4-chlorophenyl)-3-[3-(5-chlorothiophen-2-yl)-1-[(2-methoxypyrimidin-5-yl)methyl]piperidin-4-yl]urea] |
| 1 | Cc1cc(NC(=O)N[C@@H]2CCN(c3ccc(F)cc3)C[C@H]2c2ccc(Cl)cn2)sn1 (relative stereo) [Ex-26, trans-1-[5-chloro-1'-(4-fluoro-phenyl)-1',2',3',4',5',6'-hexahydro-[2,3']bipyridinyl-4'-yl]-3-(3-methyl-isothiazol-5-yl)-urea] |
| 65 | O=C(Nc1ccc(Cl)cc1)N[C@@H]1CCN(Cc2ncccn2)C[C@H]1c1ccc(Cl)s1 (single isomer, unassigned) [Ex-47, trans-1-(4-chlorophenyl)-3-[3-(5-chlorothiophen-2-yl)-1-(pyrimidin-2-ylmethyl)piperidin-4-yl]urea] |
| 1.4 | COc1ccc([C@@H]2CN(CCN(C)C)CC[C@H]2NC(=O)Nc2ccc(Cl)cc2)nc1 (relative stereo) [Ex-136, trans-1-(4-Chlorophenyl)-3-[1-[2-(dimethylamino)ethyl]-3-(5-methoxy-pyridin-2-yl)-piperidin-4-yl]-urea] |
| 1 | COc1ccc([C@@H]2CN(c3ccncn3)CC[C@H]2NC(=O)Nc2cc(C)ns2)nc1 (relative stereo) [Ex-8, trans-1-(5-methoxy-1'-pyrimidin-4-yl-1',2',3',4',5',6'-hexahydro-[2,3']bipyridinyl-4'-yl)-3-(3-methyl-isothiazol-5-yl)-urea] |
| 0.9 | Cc1cc(NC(=O)N[C@@H]2CCN(c3ccncn3)C[C@H]2c2ccc(Cl)cn2)sn1 (single isomer, unassigned) [Ex-16, trans-1-(5-chloro-1'-pyrimidin-4-yl-1',2',3',4',5',6'-hexahydro-[2,3']bipyridinyl-4'-yl)-3-(3-methyl-isothiazol-5-yl)-urea] |
| 8 | COc1ccc([C@H]2CN(C(C)(C)C(N)=O)CC[C@@H]2NC(=O)Nc2ccc(Cl)cc2)nc1 [Ex-225] |
| 0.12 | COc1ccc([C@H]2CN(CC3(C(N)=O)CC3)CC[C@@H]2NC(=O)Nc2ccc(Cl)cc2)nc1 [Ex-143, trans-1-[[4-[[(4-Chlorophenyl)-carbamoyl]amino]-3-(5-methoxy-pyridin-2-yl)-piperidin-1-yl]-methyl]-cyclopropane-1-carboxyfic acid amide] |

Same assay, conditions: agonistic response at 0.1µM

| activation at 0.1 µM [%] | Structure (SMILES) |
| --- | --- |
| 17 | COc1ccc([C@@H]2CN(c3ccncn3)C(=O)C[C@H]2NC(=O)Nc2ccc(Cl)cc2)nc1 (relative stereo) [Ex-25, trans-1-(4-chlorophenyl)-3-[5-(5-methoxypyridin-2-yl)-2-oxo-1-(pyrimidin-4-yl)piperidin-4-yl]urea] |
